The text below walks through data of US8188139B2, “Heterocyclic-substituted phenyl methanones” (Hoffman-La Roche Inc., priority 2005, dated 2012).

This assay has as its target T1, mGlyT-1b (Mus musculus, UniProt P28571).
T1 construct: host or cells: Flp-in-CHO
T1 sequence (P28571 1-651 isoform P28571-2): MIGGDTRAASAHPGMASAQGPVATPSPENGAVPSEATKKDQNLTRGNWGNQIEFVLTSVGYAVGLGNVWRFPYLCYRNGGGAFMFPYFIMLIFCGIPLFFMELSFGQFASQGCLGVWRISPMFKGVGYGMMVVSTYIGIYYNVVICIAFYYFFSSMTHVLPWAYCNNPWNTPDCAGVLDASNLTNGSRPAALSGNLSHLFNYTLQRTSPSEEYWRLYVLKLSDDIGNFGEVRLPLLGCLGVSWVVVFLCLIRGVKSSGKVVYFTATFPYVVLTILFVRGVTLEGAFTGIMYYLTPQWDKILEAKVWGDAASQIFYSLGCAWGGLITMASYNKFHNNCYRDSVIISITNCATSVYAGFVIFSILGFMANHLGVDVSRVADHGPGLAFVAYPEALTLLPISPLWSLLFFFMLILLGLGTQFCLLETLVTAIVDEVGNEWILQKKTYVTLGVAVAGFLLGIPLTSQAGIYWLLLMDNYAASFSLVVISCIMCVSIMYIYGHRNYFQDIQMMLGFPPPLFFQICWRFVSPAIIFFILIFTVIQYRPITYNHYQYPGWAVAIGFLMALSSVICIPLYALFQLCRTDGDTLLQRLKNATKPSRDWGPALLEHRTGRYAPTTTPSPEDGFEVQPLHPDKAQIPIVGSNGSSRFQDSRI
Briefly: Glycine uptake inhibition assay (mGlyT-1b). The format is cell-based. As to conditions: inhibition of [3H]-glycine uptake in Flp-in-CHO cells transfected with mGlyT-1b cDNA; 20 min preincubation at 22° C.; read-out: IC50 (μM) at GlyT-1. Here is the method: DMEM complete medium: Nutrient mixture F-12 (Gibco Life-technologies), fetal bovine serum (FBS) 5%, (Gibco life technologies), Penicillin/Streptomycin1% (Gibco life technologies), Hygromycin 0.6 mg/ml (Gibco life technologies), Glutamine 1 mM Gibco life technologies)
Uptake buffer (UB): 150 mM NaCl, 10 mM Hepes-Tris, pH 7.4, 1 mM CaCl2, 2.5 mM KCl, 2.5 mM MgSO4, 10 mM (+) D-glucose.
Flp-in™-CHO (Invitrogen Cat n^o R758-07) cells stably transfected with mGlyT1b cDNA.
Glycine Uptake Inhibition Assay (mGlyT-1b)
On day 1 mammalian cells, (Flp-in™-CHO), transfected with mGlyT-1b cDNA, were plated at the density of 40,000 cells/well in complete F-12 medium, without hygromycin in 96-well culture plates. On day 2, the medium was aspirated, and the cells were washed twice with uptake buffer (UB). The cells were then incubated for 20 min at 22° C. with either (i) no potential competitor, (ii) 10 mM non-radioactive glycine, (iii) a concentration of a potential inhibitor. A range of concentrations of the potential inhibitor was used to generate data for calculating the concentration of inhibitor resulting in 50% of the effect (e.g. IC50, the concentration of the competitor inhibiting glycine uptake of 50%). A solution was then immediately added containing [^3H]-glycine 60 nM (11-16 Ci/mmol) and 25 μM non-radioactive glycine. The plates were incubated with gentle shaking, and the reaction was stopped by aspiration of the mixture and washing (three times) with ice-cold UB. The cells were lysed with scintillation liquid, shaken 3 hours, and the radioactivity in the cells was counted using a scintillation counter.

As a reminder, the IC50 is the concentration that inhibits the measured activity by half. For `C[C@H](Oc1ccc(S(C)(=O)=O)cc1C(=O)N1Cc2cc(F)c(OC3CCOCC3)cc2C1)C(F)(F)F` [Example 377, [5-Fluoro-6-(tetrahydro-pyran-4-yloxy)-1,3-dihydro-isoindol-2-yl]-[5-methanesulfonyl-2-((S)-2,2,2-trifluoro-1-methyl-ethoxy)-phenyl]-methanone], the IC50 was 0.007 µM. Consider `C[C@H](Oc1ccc(S(C)(=O)=O)cc1C(=O)N1Cc2ccc(OCCC(F)(F)F)cc2C1)C(F)(F)F` [Example 370, [5-Methanesulfonyl-2-((S)-2,2,2-trifluoro-1-methyl-ethoxy)-phenyl]-[5-(3,3,3-trifluoro-propoxy)-1,3-dihydro-isoindol-2-yl]-methanone], for which the IC50 amounted to 0.047 µM. As to `CS(=O)(=O)c1ccc(-c2cccc(F)c2)c(C(=O)N2Cc3cc(Cl)c(N4CCOCC4)cc3C2)c1` [Example 255, (5-Chloro-6-morpho-lin-4-yl-1,3-dihydro-isoindol-2-yl)-(3′-fluoro-4-methane-sulfonyl-biphenyl-2-yl)-methanone], the IC50 came out at 0.017 µM. As to `CCc1cc2c(cc1C1CCOCC1)CN(C(=O)c1cc(S(C)(=O)=O)ccc1O[C@@H](C)C(F)(F)F)C2` [Example 306, [5-Ethyl-6-(tetrahydro-pyran-4-yl)-1,3-dihydro-isoindol-2-yl]-[5-methanesulfonyl-2-((S)-2,2,2-trifluoro-1-methyl-ethoxy)-phenyl]-methanone], the IC50 was 0.087 µM. With `CC(C)COc1ccc(S(C)(=O)=O)cc1C(=O)N1Cc2cc(C(F)(F)F)cnc2C1` [Example 125, (2-Isobutoxy-5-methanesulfonyl-phenyl)-(3-trifluoromethyl-5,7-dihydro-pyrrolo[3,4-b]pyridin-6-yl)-methanone], the IC50 is 0.03 µM. Take `Cc1cscc1-c1ccc2c(c1)CN(C(=O)c1cc(S(C)(=O)=O)ccc1O[C@@H](C)C(F)(F)F)C2` [Example 345]: the IC50 was found to be 0.034 µM. On to `CCOc1cc2c(cc1C(F)(F)F)CN(C(=O)c1cc(S(C)(=O)=O)ccc1OC(C)C)C2` [Example 240], for which the half-maximal inhibitory concentration (IC50) was 0.0456 µM. `CS(=O)(=O)c1ccc(OCC(F)(F)C(F)(F)F)c(C(=O)N2Cc3ccc(OC4CCOCC4)cc3C2)c1` [Example 374, [5-Methanesulfonyl-2-(2,2,3,3,3-pentafluoro-propoxy)-phenyl]-[5-(tetrahydro-pyran-4-yloxy)-1,3-dihydro-isoindol-2-yl]-methanone]: the IC50 was determined as 0.003 µM.

Consider `CS(=O)(=O)c1ccc(OCC2CC2)c(C(=O)N2Cc3ccc(C4CCOCC4)cc3C2)c1` [Example 271, (2-Cyclopropyl-methoxy-5-methane-sulfonyl-phenyl)-[5-(tetrahydro-pyran-4-yl)-1,3-dihydro-isoindol-2-yl]-methanone], for which the IC50 was found to be 0.029 µM.

In the case of `CC(Oc1ccc(S(C)(=O)=O)cc1C(=O)N1Cc2cc(Cl)c(Cl)cc2C1)C(F)(F)F` (racemic) [Example 9, rac-(5,6-Dichloro-1,3-dihydro-isoindol-2-yl)-[5-methanesulfonyl-2-(2,2,2-trifluoro-1-methyl-ethoxy)-phenyl]-methanone], the IC50 was found to be 0.031 µM. In the case of `CS(=O)(=O)c1ccc(-c2ccc(F)cc2)c(C(=O)N2Cc3cc(C(F)(F)F)cnc3C2)c1` [Example 140, (4′-Fluoro-4-methanesulfonyl-biphenyl-2-yl)-(3-trifluoromethyl-5,7-dihydro-pyrrolo[3,4-b]pyridin-6-yl)-methanone], the IC50 stood at 0.036 µM.

For `CC(C)COc1ccc(S(C)(=O)=O)cc1C(=O)N1Cc2ccc(C(F)(F)F)cc2C1` [Example 35, (2-Isobutoxy-5-methanesulfonyl-phenyl)-(5-trifluoromethyl-1,3-dihydro-isoindol-2-yl)-methanone], the IC50 stood at 0.028 µM. As for `C[C@H](Oc1ccc(S(C)(=O)=O)cc1C(=O)N1Cc2ccc(-c3cccc(F)c3)cc2C1)C(F)(F)F` [Example 334, [5-(3-Fluoro-phenyl)-1,3-dihydro-isoindol-2-yl]-[5-methanesulfonyl-2-(2,2,2-trifluoro-1-methyl-ethoxy)-phenyl]-methanone], the figure is 0.02 µM; as for `C[C@H](Oc1ccc(S(C)(=O)=O)cc1C(=O)N1Cc2cc(F)c(N3CCOCC3)cc2C1)C(F)(F)F` [Example 371, (5-Fluoro-6-morpholin-4-yl-1,3-dihydro-isoindol-2-yl)-[5-methanesulfonyl-2-((S)-2,2,2-trifluoro-1-methyl-ethoxy)-phenyl]-methanone], 0.006 µM; as for `COC(=O)c1cccc2c1CCN2C(=O)c1cc(S(C)(=O)=O)ccc1OC(C)C` [Example 206, 1-(2-Isopropoxy-5-methanesulfonyl-benzoyl)-2,3-dihydro-1#H!-indole-4-carboxylic acid methyl ester], 0.041 µM.

With `CCSc1ccc2c(c1)CN(C(=O)c1cc(S(C)(=O)=O)ccc1O[C@@H](C)C(F)(F)F)C2` [Example 32, (5-Ethylsulfanyl-1,3-dihydro-isoindol-2-yl)-[5-methanesulfonyl-2-((S)-2,2,2-trifluoro-1-methyl-ethoxy)-phenyl]-methanone], the IC50 came out at 0.037 µM.

`CNS(=O)(=O)c1ccc(OC(C)C)c(C(=O)N2Cc3ccc(C(F)(F)F)cc3C2)c1` [Example 43, 4-Isopropoxy-N-methyl-3-(5-trifluoromethyl-1,3-dihydro-isoindole-2-carbonyl)-benzenesulfonamide]: the IC50 was 0.034 µM. Regarding `CS(=O)(=O)c1ccc(OCC2CCC2)c(C(=O)N2Cc3cc(Cl)c(N4CCOCC4)cc3C2)c1` [Example 249, (5-Chloro-6-morpho-lin-4-yl-1,3-dihydro-isoindol-2-yl)-(2-cyclobutylmethoxy-5-methanesulfonyl-phenyl)-methanone], the IC50 was 0.022 µM. `C[C@H](Oc1ccc(S(C)(=O)=O)cc1C(=O)N1Cc2ccc(-n3cccn3)cc2C1)C(F)(F)F` [Example 347]: the IC50 was found to be 0.043 µM.

Regarding `C[C@H](Oc1ccc(S(C)(=O)=O)cc1C(=O)N1Cc2ccc(C3CCOC3)cc2C1)C(F)(F)F` (stereo partly drawn) [Example 304, [5-Methanesulfonyl-2-((S)-2,2,2-trifluoro-1-methyl-ethoxy)-phenyl]-[5-(tetra-hydro-furan-3-yl)-1,3-dihydro-isoindol-2-yl]-methanone], the IC50 is 0.008 µM. Consider `CS(=O)(=O)c1ccc(OCC(F)(F)C(F)(F)F)c(C(=O)N2Cc3ccc(C4CCOC4)cc3C2)c1` (racemic) [Example 361, rac-[5-Methanesulfonyl-2-(2,2,3,3,3-pentafluoro-propoxy)-phenyl]-[5-(tetrahydro-furan-3-yl)-1,3-dihydro-isoindol-2-yl]-methanone], for which the IC50 stood at 0.002 µM. For the compound `CS(=O)(=O)c1ccc(OCC(F)(F)C(F)(F)F)c(C(=O)N2Cc3ccc(C4CCCOC4)cc3C2)c1` (racemic) [Example 364, rac-[5-Methanesulfonyl-2-(2,2,3,3,3-pentafluoro-propoxy)-phenyl]-[5-(tetrahydro-pyran-3-yl)-1,3-dihydro-isoindol-2-yl]-methanone], the IC50 stood at 0.005 µM. As for `C[C@H](Oc1ccc(S(C)(=O)=O)cc1C(=O)N1Cc2ccc(-c3ccccc3F)cc2C1)C(F)(F)F` [Example 335, [5-(2-Fluoro-phenyl)-1,3-dihydro-isoindol-2-yl]-[5-methanesulfonyl-2-(2,2,2-trifluoro-1-methyl-ethoxy)-phenyl]-methanone], the figure is 0.031 µM; as for `C[C@H](Oc1ccc(S(C)(=O)=O)cc1C(=O)N1Cc2cc(Cl)c(C3CCOC3)cc2C1)C(F)(F)F` (mixture of isomers) [Example 359, [5-Chloro-6-(tetrahydro-furan-3-yl)-1,3-dihydro-isoindol-2-yl]-[5-methanesulfonyl-2-((S)-2,2,2-trifluoro-1-methyl-ethoxy)-phenyl]-methanone], 0.01 µM. For the compound `C[C@H](Oc1ccc(S(C)(=O)=O)cc1C(=O)N1Cc2ccc(C(F)(F)F)cc2C1)C(F)(F)F` [Example 15, [5-Methanesulfonyl-2-((S)-2,2,2-trifluoro-1-methyl-ethoxy)-phenyl]-(5-trifluoromethyl-1,3-dihydro-isoindol-2-yl)-methanone], the IC50 came to 0.021 µM.
